Tests used:
[1] = Plasma levels of octopamine in human volunteers (Example 10); type: in vivo; settings: humans, 2.5 ml or 5 ml hydrogel
Method: After thorough washing of hands, blood was sampled using […]. Blood (40 microliter) was sampled using a capillary that protruded the cap of the vial and spun down into 300 microliter vials containing 10 microliter of heparin 20 IE/ml. Plasma was pipetted off and transferred to 300 microliter vials and stored at -20° C. until analysis. Octopamine was analyzed as described in Example 7. […] FIG. 17b), and of octopamine pentanoate (3.98 mg/ml, 2.5 ml, once daily); FIG. 17c). Experiments are an average of one or two experiments (n=1-2).

human volunteers = test: Blood pressure, heart rate and side effects in human volunteers (Example 10); settings: humans, topical hydrogel treatment regimes
human subject = test: Removal of cellulite on a human subject (Example 11); type: in vivo; settings: hydrogel 3.98 mg/ml, 5 ml once daily, area with moderate cellulite, after three days
Method: A hydrogel comprising 3.98 mg/ml octopamine pentanoate (5 ml) was applied once daily on a human subject in an area with moderate cellulite.

[2] = Skin and fat penetration assay, cubes of human fat with skin (Example 8); type: in vitro ADME; settings: 0.25 ml hydrogel applied once, 20 hrs
Method: Cubes of human fat (5×5×5 cm) with skin attached from obese female subjects that underwent esthetic surgery was dissected at 4° C. Cubes were transferred to containers so the skin would overlay the rim of the container. 0.25 ml of hydrogels comprising 2.75 mg/ml free octopamine, 5 mg/ml octopamine decanoate or 3.98 mg/ml octopamine pentanoate were applied once and left to penetrate for 20 hrs. Cubes were subsequently frozen at −80° C.
Upon defrosting, skin was carefully removed taking care not to contaminate the underlying fat. The fat was dissected to yield a column of 1×1 cm of fat that was directly under the site of application. The column was sliced to yield 0.5 cm thick slices covering 0-2cm fat depth under the site of application. Tissue was sonicated in 5 ml PBS (5 mM glucose), samples were spun down (13000 rpm for 30 min at 4° C.). Clear supernatant was removed with an injection needle and syringe and frozen until analysis. Analysis of octopamine was performed as described in Example 7.

[3] = Stability / hydrolysis in PBS at 37 degrees (Example 6); type: physicochemical; settings: PBS at 37 degrees
Method: Samples were analyzed using HPLC UV.

CCCCC(=O)Oc1ccc(C(O)CN)cc1.Cl (stereo not drawn) [octopamine pentanoate, 4-(2-amino-1-hydroxyethyl)phenyl valeroate hydrochloride]
Plasma levels of free octopamine upon administration of hydrogel [1]: did not result in unacceptable plasma levels | Side effects (human volunteers): no side effects were reported | Cellulite (human subject): noticeably decreased | Concentrations of free octopamine in fat layers (0-2 cm depth) compared with hydrogel comprising octopamine [2]: higher concentrations | Penetration through skin and fat tissue [2]: penetrate through both skin and fat tissue | Hydrolysis in PBS compared with plasma or fat tissue [3]: much lower rate
